Assay results reported in PMC8800111 (The Journal of Biological Chemistry, 2021).

What was measured:
Assay type in all cases: cell-based
[1] = molecular target: proteins of U3A human fibrosarcoma cells (4462 proteins detected) (Homo sapiens, UniProt Q9NPF4); details: protein OSGEP; soluble abundance after heat, U3A cells
[2] = molecular target: proteins of U3A human fibrosarcoma cells (4462 proteins detected) (Homo sapiens, UniProt P62487); details: protein POLR2G; U3A cells
[3] = molecular target: proteins of U3A human fibrosarcoma cells (4462 proteins detected) (Homo sapiens, UniProt P42766); details: protein RPL35; U3A cells
[4] = molecular target: proteins of U3A human fibrosarcoma cells (4462 proteins detected) (Homo sapiens, UniProt P0C2W1); details: protein FBXO45, U3A cells
[5] = molecular target: proteins of U3A human fibrosarcoma cells (4462 proteins detected) (Homo sapiens, UniProt O75151); details: protein PHF2; soluble abundance after heat, U3A cells
[6] = molecular target: proteins of U3A human fibrosarcoma cells (4462 proteins detected) (Homo sapiens, UniProt Q9NP77); details: protein SSU72, U3A cells
[7] = molecular target: proteins of U3A human fibrosarcoma cells (4462 proteins detected) (Homo sapiens, UniProt Q9BX40); details: protein LSM14B; U3A, 10 μM, 2 h
[8] = molecular target: proteins of U3A human fibrosarcoma cells (4462 proteins detected) (Homo sapiens, UniProt Q13641); details: protein TPBG; soluble abundance after heat, U3A cells
[9] = molecular target: proteins of U3A human fibrosarcoma cells (4462 proteins detected) (Homo sapiens, UniProt P51946); details: protein CCNH; U3A cells
[10] = molecular target: proteins of U3A human fibrosarcoma cells (4462 proteins detected) (Homo sapiens, UniProt Q96SB8); details: protein SMC6; U3A cells
[11] = molecular target: proteins of U3A human fibrosarcoma cells (4462 proteins detected) (Homo sapiens, UniProt Q5PSV4); details: protein BRMS1L, U3A cells
[12] = molecular target: proteins of U3A human fibrosarcoma cells (4462 proteins detected) (Homo sapiens, UniProt P63096); details: protein GNAI1; soluble abundance after heat, U3A cells
[13] = molecular target: proteins of U3A human fibrosarcoma cells (4462 proteins detected) (Homo sapiens, UniProt Q9H8H0); details: protein NOL11; soluble abundance after heat, U3A cells
[14] = molecular target: proteins of U3A human fibrosarcoma cells (4462 proteins detected) (Homo sapiens, UniProt Q9UK41); details: protein VPS28; U3A cells
[15] = molecular target: proteins of U3A human fibrosarcoma cells (4462 proteins detected) (Homo sapiens, UniProt Q8NAV1); details: protein PRPF38A; U3A cells
[16] = molecular target: proteins of U3A human fibrosarcoma cells (4462 proteins detected) (Homo sapiens, UniProt O14646); details: protein CHD1, U3A cells
[17] = molecular target: proteins of U3A human fibrosarcoma cells (4462 proteins detected) (Homo sapiens, UniProt P54920); details: protein NAPA; soluble abundance after heat, U3A cells
[18] = molecular target: proteins of U3A human fibrosarcoma cells (4462 proteins detected) (Homo sapiens, UniProt P23469); details: protein PTPRE; soluble abundance after heat, U3A cells
[19] = molecular target: proteins of U3A human fibrosarcoma cells (4462 proteins detected) (Homo sapiens, UniProt P61923); details: protein COPZ1; U3A cells
[20] = molecular target: proteins of U3A human fibrosarcoma cells (4462 proteins detected) (Homo sapiens, UniProt Q6YHU6); details: protein THADA; soluble abundance after heat, U3A cells
[21] = molecular target: proteins of U3A human fibrosarcoma cells (4462 proteins detected) (Homo sapiens, UniProt O95671); details: protein ASMTL; U3A, 10 μM, 2 h
[22] = molecular target: proteins of U3A human fibrosarcoma cells (4462 proteins detected) (Homo sapiens, UniProt P50995); details: protein ANXA11; U3A cells
[23] = molecular target: proteins of U3A human fibrosarcoma cells (4462 proteins detected) (Homo sapiens, UniProt Q9UKX7); details: protein NUP50; soluble abundance after heat, U3A cells
[24] = molecular target: proteins of U3A human fibrosarcoma cells (4462 proteins detected) (Homo sapiens, UniProt Q8N6T3); details: protein ARFGAP1; U3A, 10 μM, 2 h
[25] = molecular target: proteins of U3A human fibrosarcoma cells (4462 proteins detected) (Homo sapiens, UniProt P36507); details: protein MAP2K2; U3A cells
[26] = molecular target: proteins of U3A human fibrosarcoma cells (4462 proteins detected) (Homo sapiens, UniProt P26440); details: protein IVD, U3A cells
[27] = molecular target: proteins of U3A human fibrosarcoma cells (4462 proteins detected) (Homo sapiens, UniProt Q9P2K3); details: protein RCOR3; U3A cells
[28] = molecular target: proteins of U3A human fibrosarcoma cells (4462 proteins detected) (Homo sapiens, UniProt P17844); details: protein DDX5; U3A cells
[29] = molecular target: proteins of U3A human fibrosarcoma cells (4462 proteins detected) (Homo sapiens, UniProt Q14669); details: protein TRIP12, U3A cells
[30] = molecular target: proteins of U3A human fibrosarcoma cells (4462 proteins detected) (Homo sapiens, UniProt P52294); details: protein KPNA1; U3A cells

proteins of U3A human fibrosarcoma cells (4462 proteins detected) (Homo sapiens, UniProt P63096), sequence (P63096 whole entry): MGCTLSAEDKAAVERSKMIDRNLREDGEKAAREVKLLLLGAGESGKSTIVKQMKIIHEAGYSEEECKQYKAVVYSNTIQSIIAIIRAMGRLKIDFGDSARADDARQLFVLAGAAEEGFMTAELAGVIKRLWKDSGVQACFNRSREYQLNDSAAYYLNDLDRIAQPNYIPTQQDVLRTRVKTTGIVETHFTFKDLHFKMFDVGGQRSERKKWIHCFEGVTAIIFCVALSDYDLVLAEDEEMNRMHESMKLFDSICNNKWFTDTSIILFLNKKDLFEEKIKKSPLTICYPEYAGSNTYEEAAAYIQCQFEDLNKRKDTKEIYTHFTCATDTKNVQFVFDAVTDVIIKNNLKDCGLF
proteins of U3A human fibrosarcoma cells (4462 proteins detected) (Homo sapiens, UniProt Q13641), sequence (Q13641 32-420): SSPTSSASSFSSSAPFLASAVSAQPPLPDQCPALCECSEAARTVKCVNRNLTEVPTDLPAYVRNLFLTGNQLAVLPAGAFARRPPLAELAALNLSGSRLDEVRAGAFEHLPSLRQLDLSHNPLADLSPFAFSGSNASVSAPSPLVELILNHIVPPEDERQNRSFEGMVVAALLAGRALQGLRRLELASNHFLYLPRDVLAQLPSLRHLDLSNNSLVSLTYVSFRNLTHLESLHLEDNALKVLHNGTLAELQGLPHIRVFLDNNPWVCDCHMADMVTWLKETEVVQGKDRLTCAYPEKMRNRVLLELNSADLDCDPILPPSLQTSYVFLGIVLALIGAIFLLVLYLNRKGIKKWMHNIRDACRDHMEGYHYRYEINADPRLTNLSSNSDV
proteins of U3A human fibrosarcoma cells (4462 proteins detected) (Homo sapiens, UniProt Q6YHU6), sequence (Q6YHU6 whole entry): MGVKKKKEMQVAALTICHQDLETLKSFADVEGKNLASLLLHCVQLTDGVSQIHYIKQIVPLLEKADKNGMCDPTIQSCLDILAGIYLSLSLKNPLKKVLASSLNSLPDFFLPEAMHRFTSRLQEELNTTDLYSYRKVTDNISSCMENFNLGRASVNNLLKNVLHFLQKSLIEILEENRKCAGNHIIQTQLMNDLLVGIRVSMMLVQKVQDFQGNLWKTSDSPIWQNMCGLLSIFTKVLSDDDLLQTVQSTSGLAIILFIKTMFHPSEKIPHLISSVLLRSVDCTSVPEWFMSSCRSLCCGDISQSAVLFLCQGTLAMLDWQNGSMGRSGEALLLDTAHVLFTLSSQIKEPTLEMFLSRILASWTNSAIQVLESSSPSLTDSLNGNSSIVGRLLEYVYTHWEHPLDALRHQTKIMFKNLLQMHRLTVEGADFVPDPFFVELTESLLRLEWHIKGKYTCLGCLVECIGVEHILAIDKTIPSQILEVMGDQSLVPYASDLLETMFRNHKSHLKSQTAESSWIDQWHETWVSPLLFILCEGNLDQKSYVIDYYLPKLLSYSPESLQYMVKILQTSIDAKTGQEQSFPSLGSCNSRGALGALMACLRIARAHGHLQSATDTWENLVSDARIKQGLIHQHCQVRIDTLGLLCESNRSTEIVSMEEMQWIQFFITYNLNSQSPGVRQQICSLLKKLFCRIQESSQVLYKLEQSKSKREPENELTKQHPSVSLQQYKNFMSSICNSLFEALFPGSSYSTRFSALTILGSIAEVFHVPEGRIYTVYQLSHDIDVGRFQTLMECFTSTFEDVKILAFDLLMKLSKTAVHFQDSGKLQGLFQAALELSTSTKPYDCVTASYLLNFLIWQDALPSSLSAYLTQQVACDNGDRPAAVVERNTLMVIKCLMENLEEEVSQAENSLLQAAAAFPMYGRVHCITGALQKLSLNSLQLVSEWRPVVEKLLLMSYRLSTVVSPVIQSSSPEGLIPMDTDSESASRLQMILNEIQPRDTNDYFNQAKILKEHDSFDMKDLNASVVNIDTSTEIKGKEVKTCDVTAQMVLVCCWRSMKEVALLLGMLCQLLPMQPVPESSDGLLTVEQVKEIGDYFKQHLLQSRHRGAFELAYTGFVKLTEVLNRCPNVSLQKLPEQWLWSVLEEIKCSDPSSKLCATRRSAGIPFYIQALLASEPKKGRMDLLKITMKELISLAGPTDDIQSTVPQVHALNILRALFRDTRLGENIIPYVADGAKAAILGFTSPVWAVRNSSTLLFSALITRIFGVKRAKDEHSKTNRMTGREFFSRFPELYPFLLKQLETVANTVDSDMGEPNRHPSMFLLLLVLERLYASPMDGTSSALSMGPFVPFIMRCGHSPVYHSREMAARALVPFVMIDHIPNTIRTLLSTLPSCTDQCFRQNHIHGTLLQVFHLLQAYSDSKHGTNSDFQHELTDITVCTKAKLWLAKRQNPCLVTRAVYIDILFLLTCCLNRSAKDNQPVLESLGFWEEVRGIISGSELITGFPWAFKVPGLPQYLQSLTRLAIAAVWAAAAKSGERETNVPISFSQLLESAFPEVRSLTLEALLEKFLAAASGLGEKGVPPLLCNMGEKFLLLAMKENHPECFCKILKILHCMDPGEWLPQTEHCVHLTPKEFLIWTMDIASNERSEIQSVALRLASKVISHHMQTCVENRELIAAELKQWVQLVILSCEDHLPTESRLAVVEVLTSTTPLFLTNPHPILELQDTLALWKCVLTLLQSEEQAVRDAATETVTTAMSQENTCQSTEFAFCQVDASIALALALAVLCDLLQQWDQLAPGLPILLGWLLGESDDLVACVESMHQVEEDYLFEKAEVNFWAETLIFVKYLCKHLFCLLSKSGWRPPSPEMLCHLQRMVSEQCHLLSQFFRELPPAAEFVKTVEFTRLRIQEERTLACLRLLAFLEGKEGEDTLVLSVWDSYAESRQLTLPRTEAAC
proteins of U3A human fibrosarcoma cells (4462 proteins detected) (Homo sapiens, UniProt Q96SB8), sequence (Q96SB8 whole entry): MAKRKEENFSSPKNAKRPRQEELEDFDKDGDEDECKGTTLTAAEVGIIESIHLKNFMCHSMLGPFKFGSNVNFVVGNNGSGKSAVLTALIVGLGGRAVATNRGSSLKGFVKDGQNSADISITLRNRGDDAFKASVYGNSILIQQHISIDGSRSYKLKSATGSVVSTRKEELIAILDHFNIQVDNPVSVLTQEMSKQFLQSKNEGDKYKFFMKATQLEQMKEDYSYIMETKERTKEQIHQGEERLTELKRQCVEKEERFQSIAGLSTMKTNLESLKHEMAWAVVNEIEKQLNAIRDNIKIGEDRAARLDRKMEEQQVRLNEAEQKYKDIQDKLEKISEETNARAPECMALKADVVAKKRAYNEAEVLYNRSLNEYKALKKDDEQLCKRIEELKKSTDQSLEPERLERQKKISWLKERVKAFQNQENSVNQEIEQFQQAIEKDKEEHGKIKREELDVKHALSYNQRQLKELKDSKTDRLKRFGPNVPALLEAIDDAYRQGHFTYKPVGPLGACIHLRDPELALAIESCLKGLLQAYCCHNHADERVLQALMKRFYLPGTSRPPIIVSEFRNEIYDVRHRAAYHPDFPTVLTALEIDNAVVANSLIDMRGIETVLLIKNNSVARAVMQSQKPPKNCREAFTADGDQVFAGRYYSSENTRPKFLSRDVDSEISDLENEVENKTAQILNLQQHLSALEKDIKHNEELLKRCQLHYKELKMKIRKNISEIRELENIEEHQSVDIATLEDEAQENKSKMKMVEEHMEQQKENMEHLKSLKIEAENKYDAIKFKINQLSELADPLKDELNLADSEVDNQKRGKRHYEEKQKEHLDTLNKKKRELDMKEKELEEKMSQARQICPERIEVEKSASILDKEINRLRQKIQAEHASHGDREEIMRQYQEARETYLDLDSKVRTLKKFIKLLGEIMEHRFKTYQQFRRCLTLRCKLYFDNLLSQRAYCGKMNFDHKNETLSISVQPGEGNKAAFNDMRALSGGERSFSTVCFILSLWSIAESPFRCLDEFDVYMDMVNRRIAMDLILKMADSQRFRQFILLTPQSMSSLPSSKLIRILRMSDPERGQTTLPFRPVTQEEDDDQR
proteins of U3A human fibrosarcoma cells (4462 proteins detected) (Homo sapiens, UniProt Q9UK41), sequence (Q9UK41 whole entry): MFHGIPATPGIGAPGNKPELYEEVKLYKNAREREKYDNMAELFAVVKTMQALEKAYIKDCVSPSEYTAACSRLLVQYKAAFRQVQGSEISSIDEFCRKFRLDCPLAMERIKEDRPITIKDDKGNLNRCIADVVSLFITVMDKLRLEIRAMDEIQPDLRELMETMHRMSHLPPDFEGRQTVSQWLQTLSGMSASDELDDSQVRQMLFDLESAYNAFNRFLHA
proteins of U3A human fibrosarcoma cells (4462 proteins detected) (Homo sapiens, UniProt P23469), sequence (P23469 20-700): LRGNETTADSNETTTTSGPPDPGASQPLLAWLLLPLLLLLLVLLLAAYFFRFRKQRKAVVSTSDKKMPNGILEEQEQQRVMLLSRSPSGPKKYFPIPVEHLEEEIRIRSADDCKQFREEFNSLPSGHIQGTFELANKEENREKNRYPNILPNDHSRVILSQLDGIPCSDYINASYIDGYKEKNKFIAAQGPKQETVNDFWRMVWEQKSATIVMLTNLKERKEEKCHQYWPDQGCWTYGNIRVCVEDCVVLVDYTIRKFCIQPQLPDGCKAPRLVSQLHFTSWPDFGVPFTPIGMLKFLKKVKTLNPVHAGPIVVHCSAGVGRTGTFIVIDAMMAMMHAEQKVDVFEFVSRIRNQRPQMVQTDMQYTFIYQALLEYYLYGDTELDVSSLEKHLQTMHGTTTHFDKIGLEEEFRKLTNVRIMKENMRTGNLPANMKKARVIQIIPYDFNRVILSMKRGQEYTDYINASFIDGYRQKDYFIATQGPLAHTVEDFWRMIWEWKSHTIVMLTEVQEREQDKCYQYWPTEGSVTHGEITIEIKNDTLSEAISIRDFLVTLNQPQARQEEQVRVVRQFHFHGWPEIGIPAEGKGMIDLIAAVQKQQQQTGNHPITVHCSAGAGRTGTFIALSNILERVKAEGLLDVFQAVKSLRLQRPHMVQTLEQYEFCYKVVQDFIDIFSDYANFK
proteins of U3A human fibrosarcoma cells (4462 proteins detected) (Homo sapiens, UniProt Q9NP77), sequence (Q9NP77 whole entry): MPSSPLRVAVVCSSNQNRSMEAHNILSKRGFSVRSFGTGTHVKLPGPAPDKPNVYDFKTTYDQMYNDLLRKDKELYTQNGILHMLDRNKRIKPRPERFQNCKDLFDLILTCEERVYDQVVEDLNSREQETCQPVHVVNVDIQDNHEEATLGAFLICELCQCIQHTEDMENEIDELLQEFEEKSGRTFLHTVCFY

SMILES: CCc1nc(N)nc(N)c1-c1ccc(Cl)cc1 [pyrimethamine]
- Log2 (PYR/DMSO) [1]: 0.14
- Log2 (PYR/DMSO) [2]: 0.18
- Log2 (PYR/DMSO) [3]: 0.20
- Log2 (PYR/DMSO) [4]: -0.04
- Log2 (PYR/DMSO) [5]: 0.14
- Log2 (PYR/DMSO) [6]: -0.04
- Log2 (PYR/DMSO), LSM14B [7]: -0.17
- Log2 (PYR/DMSO) [8]: 0.14
- Log2 (PYR/DMSO) [9]: 0.16
- Log2 (PYR/DMSO) [10]: 0.18
- Log2 (PYR/DMSO) [11]: -0.04
- Log2 (PYR/DMSO) [12]: 0.14
- Log2 (PYR/DMSO) [13]: 0.14
- Log2 (PYR/DMSO) [14]: 0.21
- Log2 (PYR/DMSO) [15]: 0.16
- Log2 (PYR/DMSO) [16]: -0.04
- Log2 (PYR/DMSO) [17]: 0.14
- Log2 (PYR/DMSO) [18]: 0.13
- Log2 (PYR/DMSO) [19]: 0.18
- Log2 (PYR/DMSO) [20]: 0.15
- Log2 (PYR/DMSO), ASMTL [21]: 0.27
- Log2 (PYR/DMSO) [22]: 0.19
- Log2 (PYR/DMSO) [23]: 0.15
- Log2 (PYR/DMSO), ARFGAP1 [24]: -0.14
- Log2 (PYR/DMSO) [25]: 0.23
- Log2 (PYR/DMSO) [26]: -0.05
- Log2 (PYR/DMSO) [27]: 0.21
- Log2 (PYR/DMSO) [28]: 0.19
- Log2 (PYR/DMSO) [29]: -0.04
- Log2 (PYR/DMSO) [30]: 0.17
